Results: patent US10703724B2, “Crystalline forms of {[5-(3-chlorophenyl)-3-hydroxypyridine-2-carbonyl] amino} acetic acid and processes for preparation thereof” (Crystal Pharmaceutical (Suzhou) Co., Ltd., priority 2016, dated 2020)
Values after ≈ are worked out from the molar mass of the structure shown. “Also recorded” adds a separate entry of the source.

Assays:
[1] = Solubility in SGF (suspension rotated, filtrate concentration by HPLC); assay type: physicochemical; details: for Solubility in SGF: SGF (simulated gastric fluids); for solubility in SGF compared with Form A in WO2015073779: SGF at 1 h, 4 h and 24 h
Procedure: Certain amount of Form CS1 in the present disclosure and Form A in WO2015073779 were weighted into vials and suspended in SGF (Simulated Gastric Fluids). The systems were rotated on the rotator at a rate of 25 r/min. After equilibrated for 1 h, 4 h and 24 h, the suspension was separated through 0.45 μm PTFE centrifugal filter and the filtrate was collected. The concentration of the filtrates was measured by HPLC.
(§1) Certain amount of Form CS8 in the present disclosure and Form A in WO2015073779 was weighted into vials and then suspended in SGF (Simulated gastric fluids) and water. The systems were rotated on the rotator at a rate of 25 r/min. After equilibrated for 1 h, 4 h and 24 h, the suspension was separated through 0.45 μm PTFE centrifugal filter and the filtrate was collected. The concentration of the filtrates was measured by HPLC.

[2] = Stability comparison experiment: slurry in water at room temperature, about 40 days; assay type: physicochemical
Procedure: Stability comparison experiment: about 4 mg of Form CS2 and Form A in WO2015073779 was weighted into a 1.5 mL glass vial and 1.0 mL of water was added into the vial. The solid form of the initial sample was tested. After stirring at a rate of 500 r/min at room temperature for about 40 days, the solid form of the sample was tested again. The XRPD pattern overlay is depicted in FIG. 13.

[3] = as disclosed in WO2015073779; cited from earlier work
[4] = Storage stability of the crystalline form (XRPD before and after storage); assay type: physicochemical; details: for Solid Form after storage: XRPD
Procedure: Form CS1 in the present disclosure was stored under 25° C./60% RH and 40° C./75% RH for 1 month. The XRPD pattern was collected before and after storage, and the XRPD pattern overlay is depicted in FIG. 10.
Accelerated experiment: Form CS2 was stored under 25° C./60% RH, 40° C./75% RH and 60° C./75% RH for 1 month. The XRPD pattern was collected before and after storage, and the overlay is depicted in FIG. 11.
Form CS8 of the present disclosure was stored under 25° C./60% RH, 40° C./75% RH and 60° C./75% RH for 20 days.

[5] = Mechanical stability experiment: manual grinding for 5 minutes in a mortar; assay type: physicochemical; details: XRPD
Procedure: Mechanical stability experiment: Form CS2 was manually ground for 5 minutes in a mortar. The XRPD pattern collected before and after grinding is depicted in FIG. 12.

[6] = Hygroscopicity by dynamic vapor sorption (DVS); assay type: physicochemical
Procedure: Dynamic Vapor Sorption (DVS) was measured via an SMS (Surface Measurement Systems Ltd.) intrinsic DVS instrument. Its control software is DVS-Intrinsic control software, and its analysis software is DVS-Intrinsic Analysis software. Typical Parameters for DVS test are as follows: • Temperature: 25° C. • Gas and flow rate: N2, 200 mL/min • dm/dt: 0.002%/min • RH range: 0% RH to 95% RH
Dynamic vapor sorption (DVS) was applied to test hygroscopicity of Form CS2 with 10 mg of sample.
Dynamic vapor sorption (DVS) was applied to test hygroscopicity of Form CS8 with 10 mg of sample and the DVS curve is depicted in FIG. 14. The weight gain of Form CS8 under 80% RH is 0.06%, which means Form CS8 is non hygroscopic or almost non hygroscopic.
Description and definition of hygroscopicity in the general principle 9103 of Chinese Pharmacopoeia: • deliquescent: Sufficient water is absorbed to form a liquid; • very hygroscopic: Increase in mass is equal to or greater than 15 percent; • hygroscopic: Increase in mass is less than 15 percent and equal to or greater than 2 percent; • slightly hygroscopic: Increase in mass is less than 2 percent and equal to or greater than 0.2 percent. • non hygroscopic or almost non hygroscopic: Increase in mass is less than 0.2%.

[7] = Pressure stability: tableting under 3 KN, 7 KN and 14 KN, XRPD before and after; assay type: physicochemical; details: 7 KN and 14 KN pressure
Excerpt: Form CS2 was compressed using an ENERPAC manual tablet press under 3 KN, 7 KN and 14 KN pressure with φ6 mm round tooling (to ensure isotropy of the tablet). XRPD pattern overlay depicted in FIG. 15 was collected by a […] Panalytical Empyrean X-ray diffractometer before and after tableting.

[8] = Solubility in water (suspension rotated, filtrate concentration by HPLC); assay type: physicochemical
Procedure: as §1

[9] = 25° C./60% RH, 40° C./75% RH and 60° C./75% RH

O=C(O)CNC(=O)c1ncc(-c2cccc(Cl)c2)cc1O [Form A in WO2015073779, {[5-(3-chlorophenyl)-3-hydroxypyridine-2-carbonyl]amino} acetic acid, reference compound]
Solubility in SGF ([1]; equilibrated 1 h): 8.5 µg/mL (≈ 27.7 µM)
Solubility in SGF ([1]; equilibrated 4 h): 8.6 µg/mL (≈ 28 µM)
Solubility in SGF ([1]; equilibrated 24 h): 3.8 µg/mL (≈ 12.4 µM)
solid form after slurry in water ([2]; water, 500 r/min, room temperature, XRPD): almost completely converted to Form CS2

O=C(O)CNC(=O)c1ncc(-c2cccc(Cl)c2)cc1O [Form B, {[5-(3-chlorophenyl)-3-hydroxypyridine-2-carbonyl]amino} acetic acid]
conversion in slurry at high temperature [3]: may convert to Form A

O=C(O)CNC(=O)c1ncc(-c2cccc(Cl)c2)cc1O [Form CS1, {[5-(3-chlorophenyl)-3-hydroxypyridine-2-carbonyl]amino} acetic acid]
Solubility in SGF ([1]; equilibrated 1 h): 23 µg/mL (≈ 75 µM)
Solubility in SGF ([1]; equilibrated 4 h): 26 µg/mL (≈ 84.8 µM)
Solubility in SGF ([1]; equilibrated 24 h): 19 µg/mL (≈ 61.9 µM)
solubility in SGF compared with Form A in WO2015073779 [1]: higher
time the form keeps stable ([4]; 25° C./60% RH and 40° C./75% RH): at least 1 month
Solid Form after storage ([4]; 25° C./60% RH, 1 month): Form CS1, no form change
Solid Form after storage ([4]; 40° C./75% RH, 1 month): Form CS1, no form change

O=C(O)CNC(=O)c1ncc(-c2cccc(Cl)c2)cc1O [Form CS2, {[5-(3-chlorophenyl)-3-hydroxypyridine-2-carbonyl]amino} acetic acid]
Solid Form after storage ([4]; 25° C./60% RH, 1 month): Form CS2, no form change
time the form keeps stable [4, 9]: at least 1 month
Solid Form after storage ([4]; 25° C./60% RH, 20 days): Form CS8, no form change
Solid Form after storage ([4]; 40° C./75% RH, 1 month): Form CS2, no form change
Solid Form after storage ([4]; 40° C./75% RH, 20 days): Form CS8, no form change
Solid Form after storage ([4]; 60° C./75% RH, 1 month): Form CS2, no form change
Solid Form after storage ([4]; 60° C./75% RH, 20 days): Form CS8, no form change
stability in water compared with Form A in WO2015073779 ([2]; slurry in water): more stable
crystal structure after manual grinding [5]: doesn't change
weight gain from 40% RH to 80% RH ([6]; DVS, 25° C., 10 mg of sample): 0.11%
hygroscopicity (in words) ([6]; from weight gain 40% RH to 80% RH): low hygroscopic
form change after tableting [7]: no form change; also recorded: stable

O=C(O)CNC(=O)c1ncc(-c2cccc(Cl)c2)cc1O [Form CS8, {[5-(3-chlorophenyl)-3-hydroxypyridine-2-carbonyl]amino} acetic acid]
Solubility in SGF ([1]; equilibrated 1 h): 20 µg/mL (≈ 65.2 µM)
Solubility in SGF ([1]; equilibrated 4 h): 22 µg/mL (≈ 71.7 µM)
Solubility in SGF ([1]; equilibrated 24 h): 33 µg/mL (≈ 108 µM)
solubility in SGF compared with Form A in WO2015073779 [1]: higher
solubility in water compared with Form A in WO2015073779 [8]: higher
time the form keeps stable [4, 9]: at least 20 days
weight gain at 90% RH ([6]; DVS, 25° C.): 0.08%
weight gain at 80% RH ([6]; DVS, 25° C., 10 mg of sample): 0.06%
hygroscopicity class (Chinese Pharmacopoeia general principle 9103) ([6]; from weight gain under 80% RH): non hygroscopic or almost non hygroscopic (Increase in mass is less than 0.2%)
